Data on eight molecules can be found in patent US11472778B2, “Hepatitis C virus NS3/4A protease inhibitors” (priority 2017, dated 2022).

What all share (type): biochemical, Hepatitis C virus
For assay [1], the target named is T1, wild-type GT1a NS3/4A protease (UniProt P27958).
T1 construct: Ki WT; other: wild-type HCV NS3/4A protease
The gist of the method:
(§1)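 Enzyme (GT1a wild type or D168A mutant, 2 nM) was preincubated with inhibitor dilutions for 1 h at room temperature in pH 7.5 Tris buffer with glycerol, DTT, LDAO and 4% DMSO.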

Assay [2] addresses GT1a D168A NS3/4A protease. As to conditions: fold change in Ki, D168A relative to WT. The essentials:
as §1

For assay [3], the target named is T2, GT1a D168A NS3/4A protease (UniProt P27958, D1194A, species not given).
T2 construct: rows headed: Ki (nM) D168A; Ki D168A; other: D168A variant
The gist of the method:
as §1

In assay [4] the target is GT1a R155K NS3/4A protease. As to conditions: fold change in Ki, R155K relative to WT. Here is the method: (§2) For each assay, 2 nM of NS3/4A protease (GT1a, R155K and D168A) was pre-incubated at room temperature for 1 h with increasing concentration of inhibitors in assay buffer (50 mM Tris, 5% glycerol, 10 mM DTT, 0.6 mM LDAO, and 4% dimethyl sulfoxide, pH 7.5). Inhibition assays were performed in non-binding surface 96-well black half-area plates (Corning) in a reaction volume of 60 μL. […] Three independent data sets were collected for each inhibitor with each protease construct. […] Gibbs free energy of binding was calculated using the following equation: ΔG=RTlnKi

Assay [5] deals with GT1a R155K NS3/4A protease (UniProt P27958, R1181K, species not given). Here is the method:
as §2

[6] abbreviates: read-out: Ki (nM) WT, Table 8, linear inhibitors.
The mark [7] stands for this setting: read-out: Ki WT, wild-type HCV NS3/4A protease.
[8] abbreviates: read-out: Ki (nM) D168A, Table 8, linear inhibitors.
Where [9] appears, read: read-out: Ki D168A, D168A variant.
Where [10] appears, read: read-out: Ki (nM) R155K, Table 8, linear inhibitors.
Setting [11] is: read-out: Ki R155K, R155K variant.

Where two headings read alike, the source gives them in different places.

The Ki is a dissociation constant, usually derived from enzyme kinetics or from competition with a known ligand. On to `C=C[C@@H]1C[C@]1(NC(=O)[C@@H]1C[C@@H](Oc2nc3cc(OC)ccc3nc2C(C)C)CN1C(=O)[C@@H](NC(=O)OC(C)(C)C)C(C)(C)C)C(=O)NS(=O)(=O)C1CC1` [Compound 9c, tert-Butyl ((S)-1-((2S,4R)-2-(((1R,2S)-1-((cyclopropylsulfonyl)carbamoyl)-2-vinylcyclopropyl)carbamoyl)-4-((3-isopropyl-7-methoxyquinoxalin-2-yl)oxy)pyrrolidin-1-yl)-3,3-dimethyl-1-oxobutan-2-yl)carbamate], for which the Ki in assay [1] (setting [6]) turned out to be 32 ± 5.1 nM; in assay [1] (setting [7]), 32 ± 5.1 nM; in assay [3] (setting [8]), 1090 ± 137 nM; in assay [3] (setting [9]), 1090 ± 137 nM; in assay [5] (setting [10]) it was 49 ± 11 nM; in assay [5] (setting [11]) it was 49 ± 11 nM. In assay [2], the “Ki D168A (fold change)” value stood at 34. In addition, the “Ki R155K (fold change)” value in assay [4] was 1.5.
With `C=C[C@@H]1C[C@]1(NC(=O)[C@@H]1C[C@@H](Oc2nc3cc(OC)ccc3nc2C(F)(F)F)CN1C(=O)[C@@H](NC(=O)OC(C)(C)C)C(C)(C)C)C(=O)NS(=O)(=O)C1CC1` [Compound 9e, tert-Butyl ((S)-1-((2S,4R)-2-(((1R,2S)-1-((cyclopropylsulfonyl)carbamoyl)-2-vinylcyclopropyl)carbamoyl)-4-((7-methoxy-3-(trifluoromethyl)quinoxalin-2-yl)oxy)pyrrolidin-1-yl)-3,3-dimethyl-1-oxobutan-2-yl)carbamate], the Ki in assay [1] (setting [6]) was 87 ± 18 nM; in assay [1] (setting [7]) it was 87 ± 18 nM; in assay [3] (setting [8]), 723 ± 80 nM; in assay [3] (setting [9]), 723 ± 80 nM; in assay [5] (setting [10]), 24 ± 3.3 nM; in assay [5] (setting [11]) it was 24 ± 3.3 nM. Further, the “Ki D168A (fold change)” value in assay [2] is on record as 8. The “Ki R155K (fold change)” value in assay [4] turned out to be 0.3.
Turning to `C=C[C@@H]1C[C@]1(NC(=O)[C@@H]1C[C@@H](Oc2nc3cc(OC)ccc3nc2CC)CN1C(=O)[C@@H](NC(=O)OC(C)(C)C)C(C)(C)C)C(=O)NS(=O)(=O)C1(C)CC1` [Compound 10a, tert-Butyl ((S)-1-((2S,4R)-4-((3-ethyl-7-methoxyquinoxalin-2-yl)oxy)-2-(((1R,2S)-1-(((1-methylcyclopropyl)sulfonyl)carbamoyl)-2-vinylcyclopropyl)carbamoyl)pyrrolidin-1-yl)-3,3-dimethyl-1-oxobutan-2-yl)carbamate], the inhibition constant Ki in assay [1] (setting [6]) is 16 ± 1.3 nM; in assay [1] (setting [7]), 16 ± 1.3 nM; in assay [3] (setting [8]), 385 ± 31 nM; in assay [3] (setting [9]), 385 ± 31 nM; in assay [5] (setting [10]), 14 ± 1.1 nM; in assay [5] (setting [11]), 14 ± 1.1 nM. Also, the “Ki D168A (fold change)” value in assay [2] turned out to be 24. Besides, the “Ki R155K (fold change)” value in assay [4] is given as 0.9.
On to `C=C[C@@H]1C[C@]1(NC(=O)[C@@H]1C[C@@H](Oc2nc3cc(OC)ccc3nc2C)CN1C(=O)[C@@H](NC(=O)OC(C)(C)C)C(C)(C)C)C(=O)NS(=O)(=O)C1(C)CC1` [Compound 10b, tert-Butyl ((S)-1-((2S,4R)-4-((7-methoxy-3-methylquinoxalin-2-yl)oxy)-2-(((1R,2S)-1-(((1-methylcyclopropyl)sulfonyl)carbamoyl)-2-vinylcyclopropyl)carbamoyl)pyrrolidin-1-yl)-3,3-dimethyl-1-oxobutan-2-yl)carbamate], for which the Ki in assay [1] (setting [6]) worked out at 14 ± 2.1 nM; in assay [1] (setting [7]), 14 ± 2.1 nM; in assay [3] (setting [8]) it was 265 ± 26 nM; in assay [3] (setting [9]) it was 265 ± 26 nM; in assay [5] (setting [10]), 14 ± 1.7 nM; in assay [5] (setting [11]) it was 14 ± 1.7 nM. Moreover, the “Ki D168A (fold change)” value in assay [2] was 19. The “Ki R155K (fold change)” value in assay [4] is recorded as 1.0.
On to `C=C[C@@H]1C[C@]1(NC(=O)[C@@H]1C[C@@H](Oc2nc3cc(OC)ccc3nc2C(C)C)CN1C(=O)[C@@H](NC(=O)OC(C)(C)C)C(C)(C)C)C(=O)NS(=O)(=O)C1(C)CC1` [Compound 10c, tert-Butyl ((S)-1-((2S,4R)-4-((3-isopropyl-7-methoxyquinoxalin-2-yl)oxy)-2-(((1R,2S)-1-(((1-methylcyclopropyl)sulfonyl)carbamoyl)-2-vinylcyclopropyl)carbamoyl)pyrrolidin-1-yl)-3,3-dimethyl-1-oxobutan-2-yl)carbamate], for which the Ki in assay [1] (setting [6]) came to 29 ± 9.4 nM; in assay [1] (setting [7]), 29 ± 9.4 nM; in assay [3] (setting [8]), 1180 ± 170 nM; in assay [3] (setting [9]), 1180 ± 170 nM; in assay [5] (setting [10]) it was 27 ± 5.6 nM; in assay [5] (setting [11]), 27 ± 5.6 nM. In addition, in assay [2], the “Ki D168A (fold change)” value was found to be 41. The “Ki R155K (fold change)” value in assay [4] was determined as 0.9.
As to `C=C[C@@H]1C[C@]1(NC(=O)[C@@H]1C[C@@H](Oc2nc3cc(OC)ccc3nc2C(F)(F)F)CN1C(=O)[C@@H](NC(=O)OC(C)(C)C)C(C)(C)C)C(=O)NS(=O)(=O)C1(C)CC1` [Compound 10e, tert-Butyl ((S)-1-((2S,4R)-4-((7-methoxy-3-(trifluoromethyl)quinoxalin-2-yl)oxy)-2-(((1R,2S)-1-(((1-methylcyclopropyl)sulfonyl)carbamoyl)-2-vinylcyclopropyl)carbamoyl)pyrrolidin-1-yl)-3,3-dimethyl-1-oxobutan-2-yl)carbamate], the Ki in assay [1] (setting [6]) worked out at 46 ± 9.6 nM; in assay [1] (setting [7]) it was 46 ± 9.6 nM; in assay [3] (setting [8]) it was 513 ± 50 nM; in assay [3] (setting [9]) it was 513 ± 50 nM; in assay [5] (setting [10]), 12 ± 1.7 nM; in assay [5] (setting [11]), 12 ± 1.7 nM. In addition, the “Ki D168A (fold change)” value in assay [2] came out at 11. Moreover, in assay [4], the “Ki R155K (fold change)” value stood at 0.3.
In the case of `C=C[C@@H]1C[C@]1(NC(=O)[C@@H]1C[C@@H](Oc2nc3cc(OC)ccc3nc2CC)CN1C(=O)[C@@H](NC(=O)OC1CCCC1)C(C)(C)C)C(=O)NS(=O)(=O)C1CC1` [Compound 11a, Cyclopentyl ((S)-1-((2S,4R)-2-(((1R,2S)-1-((cyclopropylsulfonyl)carbamoyl)-2-vinylcyclopropyl)carbamoyl)-4-((3-ethyl-7-methoxyquinoxalin-2-yl)oxy)pyrrolidin-1-yl)-3,3-dimethyl-1-oxobutan-2-yl)carbamate], the Ki in assay [1] (setting [6]) was 9.8 ± 2 nM; in assay [1] (setting [7]), 9.8 ± 2 nM; in assay [3] (setting [8]), 350 ± 30 nM; in assay [3] (setting [9]), 350 ± 30 nM; in assay [5] (setting [10]) it was 15 ± 2.2 nM; in assay [5] (setting [11]), 15 ± 2.2 nM. In addition, in assay [2], the “Ki D168A (fold change)” value is 36. Also, the “Ki R155K (fold change)” value in assay [4] was determined as 1.5.
As to `C=C[C@@H]1C[C@]1(NC(=O)[C@@H]1C[C@@H](Oc2nc3cc(OC)ccc3nc2C(C)C)CN1C(=O)[C@@H](NC(=O)OC1CCCC1)C(C)(C)C)C(=O)NS(=O)(=O)C1CC1` [Compound 11c, Cyclopentyl ((S)-1-((2S,4R)-2-(((1R,2S)-1-((cyclopropylsulfonyl)carbamoyl)-2-vinylcyclopropyl)carbamoyl)-4-((3-isopropyl-7-methoxyquinoxalin-2-yl)oxy)pyrrolidin-1-yl)-3,3-dimethyl-1-oxobutan-2-yl)carbamate], the Ki in assay [1] (setting [6]) worked out at 17 ± 3.2 nM; in assay [1] (setting [7]), 17 ± 3.2 nM; in assay [3] (setting [8]) it was 985 ± 106 nM; in assay [3] (setting [9]), 985 ± 106 nM; in assay [5] (setting [10]), 55 ± 11 nM; in assay [5] (setting [11]), 55 ± 11 nM. In assay [2], the “Ki D168A (fold change)” value is 58. Moreover, in assay [4], the “Ki R155K (fold change)” value is given as 3.
